The target in this assay is T1, AgrA (Staphylococcus aureus, UniProt P0A0I7).
T1 construct: endogenous in cells; host or cells: S. aureus USA300 strain UAMS-1625 carrying a P3-lacZ reporter plasmid
Briefly: cell-based. On the set-up: species or system S. aureus. As to conditions: for Ratio IC50 (in presence of HSA)/IC50 (in absence of HSA): 40 mg/mL HSA versus no HSA. On the procedure:
The inventive compounds are 3-(phenylsulfonyl)-[1,2,3]triazolo[1,5a]quinazolin-5(4h)-one derivatives comprising an N-bound piperazine or homopiperazine at the 8-position of the [1,2,3]triazolo[1,5a]quinazolin-5(4h)-one core, further substituted (on the second nitrogen atom) by an (optionally substituted) acetyl or propionyl amide group. […] Specifically, the reporter gene lacZ (which encodes the protein product β-galactosidase) was transfected into S. aureus with a plasmid under control of the P3 promoter. The compounds were serially diluted in lysogeny broth (LB), and incubated with S. aureus. Following incubation, the S. aureus cells were lysed and treated with 4-methylumbelliferyl-galactopyranoside (MUG). The β-galactosidase produced by expression of lacZ cleaved the MUG into galactopyranose and 4-methylumbelliferone, which was measured by fluorescence.
The resulting reporter strain was used to measure AgrA inhibitory activity as follows. From an overnight culture plate, cells were resuspended in 0.9% (w/v) saline solution and bacterial inoculum was prepared in LB medium with 5×10^5 CFU/ml. Compounds were two-fold serially diluted in LB and 50 μL of this 10× concentrated samples were added into the 96-deep well plate. 500 μL of bacterial suspension was finally added to the compounds or DMSO control. Plates were covered and incubated with shaking at 37° C. After 18 hours incubation, 100 μL was transferred to a new clear 96-well plate and the OD600 was measured using a TECAN Infinite F200 microplate reader to control for growth inhibition. Another 100 μL was transferred to a new black 96-well plate containing 30 μL of lysis buffer (20 mM Tris/HCl, 3 mM MgCl2, 0.5% Tween 20 (v/v), 0.5% NP-40 (v/v)) and the plate was incubated with shaking at 37° C. for 60 min. 20 μL of the substrate MUG (4-Methylumbelliferyl O-D-galactopyranoside) at 0.25 mg/ml was added and the fluorescence (excitation: 360 nm, emission: 450 mu) was measured with a TECAN Infinite F200 microplate reader after 3 hours incubation at 37° C. with shaking. The IC50 was determined using GraphPad PRISM after normalization to DMSO control.

Setting [1] is: LB medium supplemented with human serum albumin 40 mg/mL.
Setting [2] is: LB medium, no human serum albumin, 18 hours incubation.
The mark [3] stands for this setting: IC50 at 40 mg/mL HSA, LB medium supplemented with human serum albumin 40 mg/mL.
The mark [4] stands for this setting: IC50 without HSA, LB medium, no human serum albumin, 18 hours incubation.

T1 sequence (P0A0I7 whole entry): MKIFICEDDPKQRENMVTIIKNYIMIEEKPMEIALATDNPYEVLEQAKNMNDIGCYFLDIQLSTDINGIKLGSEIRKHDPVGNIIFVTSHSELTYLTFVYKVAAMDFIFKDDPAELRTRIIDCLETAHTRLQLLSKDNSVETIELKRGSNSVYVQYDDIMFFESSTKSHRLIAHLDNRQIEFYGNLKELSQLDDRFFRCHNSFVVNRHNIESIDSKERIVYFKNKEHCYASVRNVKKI

As to `Cc1ccc(S(=O)(=O)c2nnn3c2[nH]c(=O)c2ccc(N4CCN(CC(=O)N5CC(C)CC(C)C5)CC4)cc23)c(C)c1` (mixture of isomers) [Compound 63], the “Ratio IC50 (in presence of HSA)/IC50 (in absence of HSA)” value (“Ratio IC50 (in presence of HSA)/IC50” below) is reported as “++ (++: 25 < ratio ≤ 125)”. Further, the IC50 (as a rule, the midpoint of a concentration-inhibition curve) at 40 mg/mL HSA under setting [1] was “++ (++: 10 μg/mL < IC50 ≤ 50 μg/mL)”. In addition, the “IC50 without HSA” value under setting [2] was “+++ (+++: IC50 ≤ 1 μg/mL)”.
For `Cc1ccc(S(=O)(=O)c2nnn3c2[nH]c(=O)c2ccc(N4CCN(CC(=O)N5CCCC5)CC4)cc23)c(C)c1` [Compound 1, 3-(2,4-dimethylphenyl)sulfonyl-8-[4-(2-oxo-2-pyrrolidin-1-yl-ethyl)piperazin-1-yl]-4H-triazolo[1,5-a]quinazolin-5-one], the “Ratio IC50 (in presence of HSA)/IC50” value is listed as “++ (++: 25 < ratio ≤ 125)”. This compound returned an IC50 under setting [3] of 18.2 to 91 µM. In addition, the IC50 under setting [4] was below 1.82 µM.
With `Cc1ccc(S(=O)(=O)c2nnn3c2[nH]c(=O)c2ccc(N4CCN(CC(=O)N5CCOCC5)CC4)cc23)c(C)c1` [Compound 2, 3-(2,4-dimethylphenyl)sulfonyl-8-[4-(2-morpholino-2-oxo-ethyl)piperazin-1-yl]-4H-triazolo[1,5-a]quinazolin-5-one], the “Ratio IC50 (in presence of HSA)/IC50” value is reported as “+++ (+++: ratio ≤ 25)”. Besides, the half-maximal inhibitory concentration (IC50) under setting [3] was below 17.7 µM. For the same compound, the IC50 under setting [4] was below 1.77 µM.
With `CNC(=O)CN1CCN(c2ccc3c(=O)[nH]c4c(S(=O)(=O)c5ccc(C)cc5C)nnn4c3c2)CC1` [Compound 3], the IC50 under setting [3] was below 19.6 µM and the IC50 under setting [4] is below 1.96 µM.
For `CCNC(=O)CN1CCN(c2ccc3c(=O)[nH]c4c(S(=O)(=O)c5ccc(C)cc5C)nnn4c3c2)CC1` [Compound 4], the IC50 runs as follows: under setting [3], below 19.1 µM; under setting [4], below 1.91 µM.
Taken in the same sequence, the figures for `CCCNC(=O)CN1CCN(c2ccc3c(=O)[nH]c4c(S(=O)(=O)c5ccc(C)cc5C)nnn4c3c2)CC1` [Compound 5] were 18.6 to 93 µM and below 1.86 µM.
Taken in the same sequence, the figures for `Cc1ccc(S(=O)(=O)c2nnn3c2[nH]c(=O)c2ccc(N4CCN(CC(=O)NC(C)C)CC4)cc23)c(C)c1` [Compound 6] were below 18.6 µM and below 1.86 µM.
For the compound `Cc1ccc(S(=O)(=O)c2nnn3c2[nH]c(=O)c2ccc(N4CCN(CC(=O)NCC(C)C)CC4)cc23)c(C)c1` [Compound 7], the IC50 is 18.1 to 90.6 µM under setting [3] and below 1.81 µM under setting [4].
The like results for `Cc1ccc(S(=O)(=O)c2nnn3c2[nH]c(=O)c2ccc(N4CCN(CC(=O)N(C)C)CC4)cc23)c(C)c1` [Compound 8] were, in that order, 19.1 to 95.5 µM and below 1.91 µM.
With `CCN(C)C(=O)CN1CCN(c2ccc3c(=O)[nH]c4c(S(=O)(=O)c5ccc(C)cc5C)nnn4c3c2)CC1` [Compound 9], the IC50 runs as follows: under setting [3], 18.6 to 93 µM; under setting [4], below 1.86 µM.
The like results for `CCCCCNC(=O)CN1CCN(c2ccc3c(=O)[nH]c4c(S(=O)(=O)c5ccc(C)cc5C)nnn4c3c2)CC1` [Compound 10] were, in that order, 17.7 to 88.4 µM and below 1.77 µM.
Taken in the same sequence, the figures for `Cc1ccc(S(=O)(=O)c2nnn3c2[nH]c(=O)c2ccc(N4CCN(CC(=O)NCCC(C)C)CC4)cc23)c(C)c1` [Compound 11] were 17.7 to 88.4 µM and below 1.77 µM.
Consider `CCCCCCNC(=O)CN1CCN(c2ccc3c(=O)[nH]c4c(S(=O)(=O)c5ccc(C)cc5C)nnn4c3c2)CC1` [Compound 12], for which the IC50 is, setting by setting: under setting [3], 17.2 to 86.2 µM; under setting [4], below 1.72 µM.
The like results for `Cc1ccc(S(=O)(=O)c2nnn3c2[nH]c(=O)c2ccc(N4CCN(CC(=O)NCCC(C)(C)C)CC4)cc23)c(C)c1` [Compound 13] were, in that order, 17.2 to 86.2 µM and below 1.72 µM.
Taken in the same sequence, the figures for `Cc1ccc(S(=O)(=O)c2nnn3c2[nH]c(=O)c2ccc(N4CCN(CC(=O)NCCC(F)(F)F)CC4)cc23)c(C)c1` [Compound 14] were 16.9 to 84.5 µM and below 1.69 µM.
The like results for `Cc1ccc(S(=O)(=O)c2nnn3c2[nH]c(=O)c2ccc(N4CCN(CC(=O)NCCCC(F)(F)F)CC4)cc23)c(C)c1` [Compound 15] were, in that order, 16.5 to 82.6 µM and below 1.65 µM.
`COCCNC(=O)CN1CCN(c2ccc3c(=O)[nH]c4c(S(=O)(=O)c5ccc(C)cc5C)nnn4c3c2)CC1` [Compound 16]: the IC50 is, setting by setting: under setting [3], below 18.1 µM; under setting [4], below 1.81 µM.
The like results for `COCCCNC(=O)CN1CCN(c2ccc3c(=O)[nH]c4c(S(=O)(=O)c5ccc(C)cc5C)nnn4c3c2)CC1` [Compound 17] were, in that order, 17.6 to 88.1 µM and below 1.76 µM.
The like results for `CSCCNC(=O)CN1CCN(c2ccc3c(=O)[nH]c4c(S(=O)(=O)c5ccc(C)cc5C)nnn4c3c2)CC1` [Compound 18] were, in that order, 17.6 to 87.8 µM and below 1.76 µM.
The like results for `Cc1ccc(S(=O)(=O)c2nnn3c2[nH]c(=O)c2ccc(N4CCN(CC(=O)NCCO)CC4)cc23)c(C)c1` [Compound 19] were, in that order, 18.5 to 92.7 µM and below 1.85 µM.
The compound `Cc1ccc(S(=O)(=O)c2nnn3c2[nH]c(=O)c2ccc(N4CCN(CC(=O)NCCCCO)CC4)cc23)c(C)c1` [Compound 20] gave an IC50 under setting [3] of 17.6 to 88.1 µM and an IC50 under setting [4] below 1.76 µM.
The like results for `Cc1ccc(S(=O)(=O)c2nnn3c2[nH]c(=O)c2ccc(N4CCN(CC(=O)NCCOCCO)CC4)cc23)c(C)c1` [Compound 21] were, in that order, 17.1 to 85.7 µM and below 1.71 µM.
Taken in the same sequence, the figures for `Cc1ccc(S(=O)(=O)c2nnn3c2[nH]c(=O)c2ccc(N4CCN(CC(=O)NCCOCCOCCO)CC4)cc23)c(C)c1` [Compound 22] were 15.9 to 79.7 µM and 1.59 to 7.97 µM.
The like results for `C#CCNC(=O)CN1CCN(c2ccc3c(=O)[nH]c4c(S(=O)(=O)c5ccc(C)cc5C)nnn4c3c2)CC1` [Compound 23] were, in that order, below 18.7 µM and 1.87 to 9.37 µM.
Take `CCCNC(=O)CN1CCCN(c2ccc3c(=O)[nH]c4c(S(=O)(=O)c5ccc(C)cc5C)nnn4c3c2)CC1` [Compound 30]: the IC50 is, setting by setting: under setting [3], 18.1 to 90.6 µM; under setting [4], below 1.81 µM.
In the case of `COCCNC(=O)CN1CCCN(c2ccc3c(=O)[nH]c4c(S(=O)(=O)c5ccc(C)cc5C)nnn4c3c2)CC1` [Compound 31], the “Ratio IC50 (in presence of HSA)/IC50” value is “+++ (+++: ratio ≤ 25)”. Moreover, the “IC50 at 40 mg/mL HSA” value under setting [1] was “+++ (+++: IC50 ≤ 10 μg/mL)”. Further, under setting [2], the “IC50 without HSA” value is on record as “+++ (+++: IC50 ≤ 1 μg/mL)”.
Regarding `Cc1ccc(S(=O)(=O)c2nnn3c2[nH]c(=O)c2ccc(N4CCCN(CC(=O)NCCO)CC4)cc23)c(C)c1` [Compound 32], the IC50 is, setting by setting: under setting [3], 18.1 to 90.3 µM; under setting [4], 1.81 to 9.03 µM.
The like results for `Cc1ccc(S(=O)(=O)c2nnn3c2[nH]c(=O)c2ccc(N4CCN(CC(=O)NC5CC5)CC4)cc23)c(C)c1` [Compound 33] were, in that order, 18.7 to 93.3 µM and below 1.87 µM.
Taken in the same sequence, the figures for `Cc1ccc(S(=O)(=O)c2nnn3c2[nH]c(=O)c2ccc(N4CCN(CC(=O)NC5CCC5)CC4)cc23)c(C)c1` [Compound 34] were 18.2 to 91 µM and below 1.82 µM.
Taken in the same sequence, the figures for `Cc1ccc(S(=O)(=O)c2nnn3c2[nH]c(=O)c2ccc(N4CCN(CC(=O)NC5CCCC5)CC4)cc23)c(C)c1` [Compound 35] were below 17.7 µM and below 1.77 µM.
For `Cc1ccc(S(=O)(=O)c2nnn3c2[nH]c(=O)c2ccc(N4CCN(CC(=O)NCC5CC5)CC4)cc23)c(C)c1` [Compound 36], the IC50 reads like this: under setting [3], 18.2 to 91 µM; under setting [4], below 1.82 µM.
The like results for `Cc1ccc(S(=O)(=O)c2nnn3c2[nH]c(=O)c2ccc(N4CCN(CC(=O)NCC5CCCC5)CC4)cc23)c(C)c1` [Compound 37] were, in that order, below 17.3 µM and below 1.73 µM.
The like results for `Cc1ccc(S(=O)(=O)c2nnn3c2[nH]c(=O)c2ccc(N4CCN(CC(=O)NC5CCCCC5)CC4)cc23)c(C)c1` [Compound 38] were, in that order, 17.3 to 86.5 µM and below 1.73 µM.
Taken in the same sequence, the figures for `Cc1ccc(S(=O)(=O)c2nnn3c2[nH]c(=O)c2ccc(N4CCN(CC(=O)N(C)C5CCCCC5)CC4)cc23)c(C)c1` [Compound 39] were 16.9 to 84.5 µM and below 1.69 µM.
`Cc1ccc(S(=O)(=O)c2nnn3c2[nH]c(=O)c2ccc(N4CCN(CC(=O)NCC5CCCCC5)CC4)cc23)c(C)c1` [Compound 40]: the half-maximal inhibitory concentration (IC50) is below 16.9 µM under setting [3] and below 1.69 µM under setting [4].
Consider `Cc1ccc(S(=O)(=O)c2nnn3c2[nH]c(=O)c2ccc(N4CCN(CC(=O)NC5CCC(N(C)C)CC5)CC4)cc23)c(C)c1` (stereo not drawn) [Compound 42], for which the IC50 is 16.1 to 80.5 µM under setting [3] and below 1.61 µM under setting [4].
The like results for `Cc1ccc(S(=O)(=O)c2nnn3c2[nH]c(=O)c2ccc(N4CCN(CC(=O)NC5CCC(O)CC5)CC4)cc23)c(C)c1` (stereo not drawn) [Compound 43] were, in that order, below 16.8 µM and below 1.68 µM.

(Values after US20250376472A1, “3-(PHENYLSULFONYL)-[1,2,3]TRIAZOLO[1,5A]QUINAZOLIN-5(4H)-ONE DERIVATIVES” (priority 2022, published 2025).)
